The record followed here is PubChem BioAssay (NCI).

Each structure is given as a SMILES string.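 Protocol summary: plate cells (96-well), add compound at 5 concentrations, incubate 48 h, interpolate endpoints linearly. GI50 marks 50% less growth. TGI is the concentration that stops growth completely.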 Some results are limits rather than exact numbers.

Some test systems named below: HOP-62 NSCLC; SK-OV-3 ovarian; HCT-116 colon; OVCAR-5 ovarian; SF-268 CNS; LOX IMVI melanoma; U251 CNS; CAKI-1 renal; NCI/ADR-RES ovarian.
Holding throughout (test): NCI tumour cell line growth inhibition, 48 h

For the molecule `O=C(Nc1ccc(Cl)cc1C(=O)O)c1ccc([N+](=O)[O-])cc1`, the TGI in the assay on HOP-62 NSCLC is 39.2 µM; in the assay with SK-OV-3 ovarian, 56.5 µM; in the assay on HCT-116 colon, 36.9 µM; in the assay with OVCAR-5 ovarian, 55 µM; in the assay on SF-268 CNS, more than 100 µM; with LOX IMVI melanoma, 37.6 µM. In the assay on U251 CNS, this molecule displayed a TGI of 51.1 µM.
As to `CC(C)COC1Sc2ccccc2S1`, the TGI is 41.3 µM in the assay with HOP-62 NSCLC; 52.4 µM in the assay on CAKI-1 renal; 43.2 µM in the assay on SK-OV-3 ovarian; 66.3 µM in the assay on SF-268 CNS; 37.9 µM in the assay with LOX IMVI melanoma; 35.9 µM with U251 CNS.
Regarding `CCOC(=N)CC(=O)Nc1ccccc1`, the TGI in the assay on HOP-62 NSCLC was more than 46.4 µM; with CAKI-1 renal it was more than 100 µM; in the assay with SK-OV-3 ovarian, more than 100 µM; with HCT-116 colon it was more than 46.4 µM; in the assay with OVCAR-5 ovarian, more than 100 µM; in the assay on SF-268 CNS it was more than 46.4 µM. Further, the TGI was more than 71.4 µM in the assay on LOX IMVI melanoma and more than 100 µM with U251 CNS.
As for `N#C/C(=C1\OC(=N)C(c2ccccc2)C1=O)c1ccccc1` (stereo not drawn), the TGI with HOP-62 NSCLC was more than 100 µM; in the assay on CAKI-1 renal, more than 96.6 µM; in the assay on SK-OV-3 ovarian it was more than 100 µM; in the assay on HCT-116 colon it was 31.6 µM; in the assay on OVCAR-5 ovarian, more than 100 µM; with SF-268 CNS, more than 100 µM. Besides, the values for the TGI in the assay with LOX IMVI melanoma and in the assay with U251 CNS were 91.5 µM and more than 100 µM, respectively.
As to `C[N+](C)(C)c1cc[c]([Sn]([c]2ccc([N+](C)(C)C)cc2)([c]2ccc([N+](C)(C)C)cc2)[c]2ccc([N+](C)(C)C)cc2)cc1`, the GI50 in the assay with HOP-62 NSCLC, with SK-OV-3 ovarian, in the assay with HCT-116 colon, with OVCAR-5 ovarian, in the assay with SF-268 CNS and in the assay with LOX IMVI melanoma was more than 100 µM each time. In addition, in the assay with U251 CNS, the GI50 was more than 100 µM. For the same molecule, the TGI in the assay with HOP-62 NSCLC, in the assay on SK-OV-3 ovarian, in the assay on HCT-116 colon, in the assay on OVCAR-5 ovarian, with SF-268 CNS and in the assay with LOX IMVI melanoma was more than 100 µM in each case. For the same molecule, in the assay on U251 CNS, the TGI is more than 100 µM.
For `CC1C=CC(C(N)C(=O)O)O1` (stereo not drawn), the TGI in the assay with HOP-62 NSCLC, in the assay on CAKI-1 renal, with SK-OV-3 ovarian, in the assay on HCT-116 colon, in the assay on OVCAR-5 ovarian and in the assay on SF-268 CNS was more than 100 µM each time. The TGI with LOX IMVI melanoma and with U251 CNS was more than 100 µM in each case.
`CC1=CP(=O)(c2ccccc2)C=C(C)C1=C(Cl)Cl` (stereo not drawn): the TGI with HOP-62 NSCLC is 12.5 µM; with SK-OV-3 ovarian, 72.3 µM; in the assay on HCT-116 colon, 10.1 µM; in the assay on SF-268 CNS, 42.4 µM; in the assay on LOX IMVI melanoma it was 14.9 µM; in the assay on U251 CNS it was 19.8 µM.
For the molecule `O=C(CC1C(=O)Nc2ccccc2S1(=O)=O)Nc1ccc(Cl)cc1` (stereo not drawn), the TGI with CAKI-1 renal was 43.5 µM; with HCT-116 colon it was more than 100 µM; with OVCAR-5 ovarian, more than 100 µM; in the assay with SF-268 CNS, 28.6 µM; with LOX IMVI melanoma it was 41.8 µM; with U251 CNS it was 34 µM.
`O=C(N/C(=C\c1ccccc1O)c1nc2ccccc2[nH]1)c1ccccc1`: the TGI in the assay with HOP-62 NSCLC, in the assay on CAKI-1 renal, in the assay with SK-OV-3 ovarian, in the assay with HCT-116 colon, in the assay on OVCAR-5 ovarian and with SF-268 CNS was more than 100 µM in each case. The TGI in the assay with LOX IMVI melanoma and in the assay with U251 CNS was more than 100 µM each time.
Regarding `NCCCNc1nc2ccccc2c2c(=O)c3cccc(Cl)c3sc12`, the GI50 was 1.28 µM in the assay on CAKI-1 renal; 1.45 µM in the assay on SK-OV-3 ovarian; 1.34 µM in the assay with HCT-116 colon; 1.71 µM in the assay with NCI/ADR-RES ovarian; 1.55 µM in the assay on OVCAR-5 ovarian. Also, the TGI in the assay with CAKI-1 renal was 2.68 µM; with SK-OV-3 ovarian, 2.92 µM; with HCT-116 colon, 2.7 µM; with NCI/ADR-RES ovarian, 3.25 µM; in the assay with OVCAR-5 ovarian, 3.04 µM.
`CCCCNC(=S)OCCC(C)CCCC(C)C` (stereo not drawn): the TGI in the assay on HOP-62 NSCLC, in the assay on CAKI-1 renal, with SK-OV-3 ovarian, in the assay on HCT-116 colon, in the assay on OVCAR-5 ovarian and in the assay on SF-268 CNS was more than 100 µM in each case. In addition, the TGI in the assay with LOX IMVI melanoma and with U251 CNS was more than 100 µM throughout.
`COc1ccc(O)cc1C(O)c1ccccc1` (stereo not drawn): the TGI in the assay on HOP-62 NSCLC, in the assay on CAKI-1 renal, in the assay with SK-OV-3 ovarian, in the assay on HCT-116 colon, in the assay with OVCAR-5 ovarian and in the assay with SF-268 CNS was more than 100 µM throughout. Besides, the TGI in the assay with LOX IMVI melanoma and with U251 CNS was more than 100 µM each time.
Turning to `Nc1nc2c(-c3ccc([N+](=O)[O-])cc3)nnn2c2ccccc12`, the TGI in the assay with HOP-62 NSCLC, in the assay with CAKI-1 renal, in the assay on SK-OV-3 ovarian, in the assay with OVCAR-5 ovarian, in the assay on SF-268 CNS and in the assay on LOX IMVI melanoma was more than 100 µM in each case. Moreover, the TGI in the assay with U251 CNS was 66.4 µM.
For the molecule `O=C(N=c1nc(NC(=O)c2ccccc2)ss1)c1ccccc1`, the TGI was more than 100 µM in the assay with HOP-62 NSCLC; 75.8 µM in the assay with CAKI-1 renal; 68.9 µM in the assay with SK-OV-3 ovarian; more than 100 µM in the assay with HCT-116 colon; more than 100 µM with OVCAR-5 ovarian; more than 100 µM with SF-268 CNS. For the same molecule, the TGI is more than 100 µM with LOX IMVI melanoma and 37.1 µM in the assay with U251 CNS.
Take `CC(=O)NNc1nc(C)c(C(=O)NNC(=O)C(=O)Nc2c([N+](=O)[O-])ccc(C)c2C)s1`: the TGI in the assay on HOP-62 NSCLC, with CAKI-1 renal, in the assay with HCT-116 colon, in the assay with OVCAR-5 ovarian, in the assay on SF-268 CNS and in the assay with LOX IMVI melanoma was more than 100 µM throughout. Also, the TGI in the assay on U251 CNS is more than 100 µM.
For the molecule `COc1ccc(/C=C/C(=O)c2c(-c3ccccc3)nn(C)c(=O)c2N2CCOCC2)cc1`, the TGI with CAKI-1 renal, in the assay on SK-OV-3 ovarian, with HCT-116 colon, in the assay with SF-268 CNS, in the assay with LOX IMVI melanoma and in the assay on U251 CNS was more than 100 µM each time.
As for `c1ccc2c(c1)Cc1c(Cc3csc4ccccc34)ccc3cccc-2c13`, the TGI in the assay on HOP-62 NSCLC, with HCT-116 colon, in the assay on OVCAR-5 ovarian, in the assay on SF-268 CNS and in the assay with U251 CNS was more than 100 µM each time.
As for `COCCc1n(Cc2ccc3ccccc3c2)c2ccccc2[n+]1Cc1ccc2ccccc2c1`, the GI50 with HOP-62 NSCLC is 1.26 µM; in the assay on SK-OV-3 ovarian, 1.28 µM; in the assay on NCI/ADR-RES ovarian, 11.2 µM; in the assay on OVCAR-5 ovarian, 1.11 µM. The TGI with HOP-62 NSCLC was found to be 2.73 µM; in the assay on SK-OV-3 ovarian it was 2.59 µM; with NCI/ADR-RES ovarian it was 53 µM; with OVCAR-5 ovarian, 2.47 µM.
For `Cc1ccc(/C=C/C(=O)c2sc(-n3nc(-c4ccccc4)cc3-c3ccccc3)nc2C)cc1`, the TGI in the assay with HOP-62 NSCLC, in the assay with CAKI-1 renal, with SK-OV-3 ovarian, with OVCAR-5 ovarian, in the assay with SF-268 CNS and with LOX IMVI melanoma was more than 100 µM each time. The molecule further had a TGI in the assay on U251 CNS of more than 100 µM.
In the case of `O=C(CCC(=O)Nc1cccc(C(F)(F)F)c1)CC(=O)c1ccc2ccccc2c1`, the TGI in the assay with CAKI-1 renal, in the assay on SK-OV-3 ovarian, in the assay on HCT-116 colon, in the assay on OVCAR-5 ovarian, in the assay with SF-268 CNS and with LOX IMVI melanoma was more than 100 µM each time. In the assay with U251 CNS, this molecule displayed a TGI of more than 100 µM.
For the molecule `COc1cc(/C=C(\NC(=O)c2ccccc2)c2nc3ncncc3[nH]2)cc(OC)c1OC`, the TGI in the assay on CAKI-1 renal, with SK-OV-3 ovarian, with OVCAR-5 ovarian, with SF-268 CNS and in the assay on U251 CNS was more than 100 µM throughout.
For `NS(=O)(=O)c1ccc(NC(=O)C2C(=O)C(=O)N(c3ccc(S(N)(=O)=O)cc3)C2=O)cc1` (stereo not drawn), the TGI in the assay with HOP-62 NSCLC, with CAKI-1 renal, in the assay with SK-OV-3 ovarian, with HCT-116 colon, with OVCAR-5 ovarian and in the assay with SF-268 CNS was more than 100 µM in each case. Also, the TGI in the assay with LOX IMVI melanoma and in the assay with U251 CNS was more than 100 µM throughout.
Turning to `C(=C\C(Sc1ccccc1)c1ccccc1)/NNC1=NC(c2ccccc2)C(c2ccccc2)=NN1` (stereo not drawn), the TGI in the assay on HOP-62 NSCLC, in the assay on CAKI-1 renal, in the assay on SK-OV-3 ovarian, in the assay with HCT-116 colon, in the assay with OVCAR-5 ovarian and in the assay on SF-268 CNS was more than 100 µM in each case. In addition, the TGI with LOX IMVI melanoma and in the assay on U251 CNS was more than 100 µM in each case.
Take `CCc1cc2c(O)c(c1)Cc1cc(CC)cc(c1O)Cc1cc(CC)cc(c1O)Cc1cc(CC)cc(c1O)Cc1cc(CC)cc(c1O)Cc1cc(CC)cc(c1O)Cc1cc(CC)cc(c1O)C2`: the TGI in the assay on HOP-62 NSCLC, with HCT-116 colon, with OVCAR-5 ovarian, with SF-268 CNS and with U251 CNS was more than 100 µM in each case.
